Data from PubChem BioAssay (NCI).
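These data come from cells grown in 96-well plates and exposed to compound for 48 hours at five concentrations. GI50 = concentration required for 50% inhibition of growth. TGI: total growth inhibition.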

How the values were obtained:
Assay in all cases: NCI anticancer screen, dose series, 48 h
[1] = test system: SF-268 CNS
[2] = test system: CAKI-1 renal
[3] = test system: OVCAR-3 ovarian
[4] = test system: DU-145 prostate
[5] = test system: BT-549 breast
[6] = test system: SK-MEL-2 melanoma
[7] = test system: SN12C renal
[8] = test system: A549 NSCLC
[9] = test system: OVCAR-8 ovarian
[10] = test system: TK-10 renal

| Structure (SMILES) | GI50 [1] [µM] | TGI [1] [µM] | GI50 [2] [µM] | TGI [2] [µM] | GI50 [3] [µM] | TGI [3] [µM] | GI50 [4] [µM] | TGI [4] [µM] | GI50 [5] [µM] | TGI [5] [µM] | GI50 [6] [µM] | TGI [6] [µM] | GI50 [7] [µM] | TGI [7] [µM] | GI50 [8] [µM] | TGI [8] [µM] | GI50 [9] [µM] | TGI [9] [µM] | TGI [10] [µM] | GI50 [10] [µM] |
| --- | --- | --- | --- | --- | --- | --- | --- | --- | --- | --- | --- | --- | --- | --- | --- | --- | --- | --- | --- | --- |
| CCN(CC)CCCC(C)N/C(=C1\C(=O)NC(=O)\C1=C(/NC(C)CCCN(CC)CC)c1cccc(OC)c1)c1cccc(OC)c1 (configuration not stated) | 1.03 | 3.11 | 1.03 | 2.52 | 1.12 | 3.2 | 1.02 | 4.5 | 1.31 | 3.82 | 0.947 | 1.8 | 1.27 | 7.03 | 0.819 | 1.8 | 0.515 | 3.09 | – | – |
| Nc1ccccc1C(=O)CCC1C(=O)NC(=S)NC1=O | – | > 100 | – | > 100 | – | > 100 | – | > 100 | – | – | – | > 100 | – | – | – | > 100 | – | > 100 | > 100 | – |
| O=C(/C=C\c1cccc2ccccc12)c1ccc(Cl)cc1Cl | – | 51.9 | – | > 100 | – | 43.5 | – | – | – | – | – | – | – | > 100 | – | > 100 | – | 37.3 | > 100 | – |
| c1ccc(CNCCN(CCNCc2ccccn2)Cc2ccc3ccccc3c2)nc1 | 2.89 | 12.3 | – | – | 1.83 | 3.74 | 2.79 | 10.3 | 2.87 | 10.9 | – | – | 3.21 | 11.1 | 2.33 | 5.38 | 2.27 | 6.29 | 6.58 | 1.36 |
| CCc1ccc(COC(=O)C2=C(C)NC(C)=C(C(=O)OCc3ccc(CC)cn3)C2C2=COCCO2)nc1 | – | > 100 | – | 88.5 | – | 54.7 | – | > 100 | – | 31.1 | – | – | – | – | – | > 100 | – | > 100 | > 100 | – |
| COC1(OC)C2(Cl)C(Cl)=C(Cl)C1(Cl)C1C2C2CC1(C(=O)O)c1ccccc12 (configuration not stated) | – | 55.8 | – | 83.1 | – | 33.4 | – | – | – | – | – | – | – | 40.9 | – | > 100 | – | 88.3 | 70 | – |
| COC1OC2COC(C)(C)OC2C(OC(C)=O)C1NC(=O)N(CCCl)N=O (configuration not stated) | – | > 100 | – | > 100 | – | > 100 | – | – | – | – | – | > 100 | – | > 100 | – | > 100 | – | > 100 | > 100 | – |
| CC(=O)[C@H]1CCC2[C@@H]3CC=C4C[C@@H]([O-])CC[C@]4(C)C3CC[C@@]21C.CC(=O)[C@H]1CCC2[C@@H]3CC=C4C[C@@H]([O-])CC[C@]4(C)C3CC[C@@]21C.CC(=O)[CH-]C(=O)c1ccccc1.CC(=O)[CH-]C(=O)c1ccccc1.Cl.[Ti+4] (some centres not stated) | 21.3 | 92.8 | 19 | 97.3 | 39.5 | > 100 | – | – | – | – | 14.7 | 31 | 34.1 | > 100 | 23.6 | > 100 | 19.8 | 79.2 | > 100 | 40.7 |
| S=c1ncc2c([nH]1)C1c3ccccc3C2c2ccccc21 | – | > 100 | – | – | – | > 100 | – | – | – | – | – | > 100 | – | > 100 | – | > 100 | – | > 100 | > 100 | – |
| Nc1c(Cl)ncnc1NCCCCCCCCCCCCNc1ncnc(Cl)c1N | – | > 100 | – | – | – | 8.35 | – | – | – | – | – | 7.92 | – | 39.6 | – | – | – | > 100 | > 100 | – |
| CN(/N=C\c1ccnc2ccccc12)c1ccc([N+](=O)[O-])cc1 | – | > 100 | – | > 100 | – | > 100 | – | – | – | – | – | > 100 | – | > 100 | – | > 100 | – | > 100 | > 100 | – |
| Cc1cc2c(-c3nc4ccccn4c3N)c(O)c(O)cc2c(O)c1-c1c(C)cc2c(-c3nc4ccccn4c3N)c(O)c(O)cc2c1O | 0.653 | > 25 | – | – | 1.36 | > 25 | – | – | 0.145 | > 25 | 0.961 | 23.4 | 0.82 | > 25 | 0.688 | > 25 | 0.975 | > 25 | > 25 | 1.51 |
| CCOC(=O)C(C#N)C1=CC(=O)C(=O)c2ccc(O)cc21 (configuration not stated) | – | > 100 | – | > 100 | – | > 100 | – | > 100 | – | – | – | > 100 | – | > 100 | – | > 100 | – | > 100 | > 100 | – |
| CC(=O)[CH-]C(=O)c1ccccc1.CC(=O)[CH-]C(=O)c1ccccc1.CC(=O)[CH-]C(=O)c1ccccc1.[Nd+3].[OH3+] | 41.3 | > 100 | 61 | > 100 | 45.7 | > 100 | – | – | – | – | 25.9 | > 100 | 42.3 | > 100 | > 100 | > 100 | 27.2 | > 100 | > 100 | > 100 |
| COc1cc(/C=N/N=C(\N)NO)c(Cl)cc1O | – | > 100 | – | > 100 | – | – | – | – | – | – | – | > 100 | – | > 100 | – | > 100 | – | > 100 | – | – |
| NC1=NN(c2ccccc2)C(=O)C1C(=O)C(=O)Nc1ccc(Cl)c(Cl)c1 (configuration not stated) | – | > 100 | – | > 100 | – | > 100 | – | – | – | – | – | > 100 | – | > 100 | – | > 100 | – | > 100 | > 100 | – |
| COC(=O)[C@@]12CC(C(C)C)[C@H]3CC(C(=O)C=C1OC)[C@H]32 (some centres not stated) | – | > 100 | – | > 100 | – | > 100 | – | – | – | – | – | > 100 | – | > 100 | – | > 100 | – | > 100 | > 100 | – |
| C/C=C1/CC(C)C(C)(O)C(=O)OCC2C(O)CN3CCC(OC1=O)C23 (configuration not stated) | – | > 100 | – | > 100 | – | – | – | > 100 | – | > 100 | – | > 100 | – | > 100 | – | > 100 | – | > 100 | > 100 | – |
| COc1ccc(OC)c(/C=N/N=C(\N)NO)c1 | – | > 100 | – | 71.4 | – | > 100 | – | – | – | – | – | > 100 | – | > 100 | – | > 100 | – | > 100 | 56 | – |
| CC1(C)CCCC(C)(C2CCC3(C)C2C(O)CC2C4(C)CCC(O)C(C)(C)C4CCC23C)O1 (configuration not stated) | – | > 100 | – | > 100 | – | – | – | > 100 | – | > 100 | – | > 100 | – | > 100 | – | > 100 | – | > 100 | > 100 | – |
| Cc1cc(=O)n(-c2cc3cccccc-3n2)[nH]1 | – | – | – | – | – | 8.23 | – | – | – | – | – | – | – | 62.3 | – | > 100 | – | – | > 100 | – |
